Measured values as given in patent US10251395B2, “Substituted furano-/thienocycloalkylamino-2-pyrimidine derivatives and use thereof for controlling undesired plant growth” (Bayer CropScience Aktiengesellschaft, priority 2015, dated 2019).

Experiments:
[1] = system: Stellaria media; assay: Pre-emergence herbicidal effect; assay type: in vivo; settings: scored visually after 3 weeks
Method in brief: (§1)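 Using soil-surface application before emergence, the compound was delivered in a water volume equating to 600 to 800 L/ha. Plants grew in a greenhouse for 3 weeks; activity was then rated visually in percent against untreated plants, with 100% for plants killed.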

[2] = system: Echinochloa crus-galli; assay: Pre-emergence herbicidal effect; assay type: in vivo; settings: scored visually after 3 weeks
Method in brief: as §1

[3] = system: Veronica persica; assay: Pre-emergence herbicidal effect; assay type: in vivo; settings: scored visually after 3 weeks
Method in brief: as §1

[4] = system: Alopecurus myosuroides; assay: Pre-emergence herbicidal effect; assay type: in vivo; settings: scored visually after 3 weeks
Method in brief: as §1

[5] = system: Lolium multiflorum; assay: Pre-emergence herbicidal effect; assay type: in vivo; settings: Dosage 320 g/ha, scored visually after 3 weeks
Method in brief: as §1

[6] = system: Polygonum convolvulus; assay: Pre-emergence herbicidal effect; assay type: in vivo; settings: scored visually after 3 weeks
Method in brief: as §1

[7] = system: Setaria viridis; assay: Pre-emergence herbicidal effect; assay type: in vivo; settings: scored visually after 3 weeks
Method in brief: as §1

[8] = system: Ipomoea purpurea; assay: Pre-emergence herbicidal effect; assay type: in vivo; settings: scored visually after 3 weeks
Method in brief: as §1

[9] = system: Avena fatua; assay: Pre-emergence herbicidal effect; assay type: in vivo; settings: scored visually after 3 weeks
Method in brief: as §1

[10] = system: Viola tricolor; assay: Pre-emergence herbicidal effect; assay type: in vivo; settings: scored visually after 3 weeks
Method in brief: as §1

[11] = system: Abutilon theophrasti; assay: Pre-emergence herbicidal effect; assay type: in vivo; settings: scored visually after 3 weeks
Method in brief: as §1

[12] = system: Cyperus esculentus; assay: Pre-emergence herbicidal effect; assay type: in vivo; settings: scored visually after 3 weeks
Method in brief: as §1

[13] = system: Amaranthus retroflexus; assay: Pre-emergence herbicidal effect; assay type: in vivo; settings: scored visually after 3 weeks
Method in brief: as §1

[14] = system: Matricaria inodora; assay: Pre-emergence herbicidal effect; assay type: in vivo; settings: scored visually after 3 weeks
Method in brief: as §1

[15] = system: Stellaria media; assay: Post-emergence herbicidal effect; assay type: in vivo; settings: assessed visually after about 3 weeks vs untreated controls
Method in brief: (§2)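 Greenhouse post-emergence spray: one-leaf seedlings, sandy loam, aqueous WP/EC formulation with 0.2% wetting agent at 600–800 L/ha. Visual assessment after ~3 weeks, as % activity relative to untreated controls.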

[16] = system: Veronica persica; assay: Post-emergence herbicidal effect; assay type: in vivo; settings: assessed visually after about 3 weeks vs untreated controls
Method in brief: as §2

[17] = system: Polygonum convolvulus; assay: Post-emergence herbicidal effect; assay type: in vivo; settings: 320 g/ha, assessed visually after about 3 weeks vs untreated controls
Method in brief: as §2

[18] = system: Setaria viridis; assay: Post-emergence herbicidal effect; assay type: in vivo; settings: assessed visually after about 3 weeks vs untreated controls
Method in brief: as §2

[19] = system: Ipomoea purpurea; assay: Post-emergence herbicidal effect; assay type: in vivo; settings: assessed visually after about 3 weeks vs untreated controls
Method in brief: as §2

[20] = system: Viola tricolor; assay: Post-emergence herbicidal effect; assay type: in vivo; settings: assessed visually after about 3 weeks vs untreated controls
Method in brief: as §2

[21] = system: Abutilon theophrasti; assay: Post-emergence herbicidal effect; assay type: in vivo; settings: assessed visually after about 3 weeks vs untreated controls
Method in brief: as §2

[22] = system: Amaranthus retroflexus; assay: Post-emergence herbicidal effect; assay type: in vivo; settings: assessed visually after about 3 weeks vs untreated controls
Method in brief: as §2

[23] = system: Matricaria inodora; assay: Post-emergence herbicidal effect; assay type: in vivo; settings: assessed visually after about 3 weeks vs untreated controls
Method in brief: as §2

[24] = logP (HCOOH); assay type: physicochemical; settings: HCOOH
From the text: Table 2 (physicochemical characterization of selected synthesis examples)

[25] = system: Echinochloa crus-galli; assay: Post-emergence herbicidal effect; assay type: in vivo; settings: 320 g/ha, assessed visually after about 3 weeks vs untreated controls
Method in brief: as §2

[26] = system: Alopecurus myosuroides; assay: Post-emergence herbicidal effect; assay type: in vivo; settings: 320 g/ha, assessed visually after about 3 weeks vs untreated controls
Method in brief: as §2

SMILES | ECHCG pre-emergence efficacy (herbicidal activity) ([2]; Dosage 80 g/ha) [%] | ECHCG pre-emergence efficacy (herbicidal activity) ([2]; Dosage 320 g/ha) [%] | ALOMY pre-emergence efficacy (herbicidal activity) ([4]; Dosage 320 g/ha) [%] | POLCO pre-emergence efficacy (herbicidal activity) ([6]; Dosage 80 g/ha) [%] | POLCO pre-emergence efficacy (herbicidal activity) ([6]; Dosage 320 g/ha) [%] | SETVI pre-emergence efficacy (herbicidal activity) ([7]; Dosage 80 g/ha) [%] | SETVI pre-emergence efficacy (herbicidal activity) ([7]; Dosage 320 g/ha) [%] | PHBPU pre-emergence efficacy (herbicidal activity) ([8]; Dosage 320 g/ha) [%] | AVEFA pre-emergence efficacy (herbicidal activity) ([9]; Dosage 320 g/ha) [%] | ABUTH pre-emergence efficacy (herbicidal activity) ([11]; Dosage 320 g/ha) [%] | CYPES pre-emergence efficacy (herbicidal activity) ([12]; Dosage 320 g/ha) [%] | AMARE pre-emergence efficacy (herbicidal activity) ([13]; Dosage 80 g/ha) [%] | AMARE pre-emergence efficacy (herbicidal activity) ([13]; Dosage 320 g/ha) [%] | MATIN pre-emergence efficacy (herbicidal activity) ([14]; Dosage 80 g/ha) [%] | MATIN pre-emergence efficacy (herbicidal activity) ([14]; Dosage 320 g/ha) [%] | post-emergence efficacy STEME ([15]; 80 g/ha) [%] | post-emergence efficacy STEME ([15]; 320 g/ha) [%] | post-emergence efficacy SETVI ([18]; 320 g/ha) [%] | post-emergence efficacy VIOTR ([20]; 80 g/ha) [%] | post-emergence efficacy VIOTR ([20]; 320 g/ha) [%] | further results
CS(=O)(=O)c1cnc(N[C@@H]2CCCc3sccc32)nc1N [compound 24] | 100 | 100 | 100 | 100 | 100 | 90 | 100 | 100 | 90 | 100 | 60 | 100 | 100 | 100 | 100 | 80 | 100 | 80 | 90 | 100 | STEME pre-emergence efficacy (herbicidal activity) ([1]; Dosage 80 g/ha): 100%; STEME pre-emergence efficacy (herbicidal activity) ([1]; Dosage 320 g/ha): 100%; VERPE pre-emergence efficacy (herbicidal activity) ([3]; Dosage 80 g/ha): 100%; VERPE pre-emergence efficacy (herbicidal activity) ([3]; Dosage 320 g/ha): 100%; LOLMU pre-emergence efficacy (herbicidal activity) [5]: 100%; VIOTR pre-emergence efficacy (herbicidal activity) ([10]; Dosage 80 g/ha): 100%; VIOTR pre-emergence efficacy (herbicidal activity) ([10]; Dosage 320 g/ha): 100%; post-emergence efficacy VERPE ([16]; 80 g/ha): 90%; post-emergence efficacy VERPE ([16]; 320 g/ha): 100%; post-emergence efficacy POLCO [17]: 80%; post-emergence efficacy PHBPU ([19]; 80 g/ha): 80%; post-emergence efficacy PHBPU ([19]; 320 g/ha): 100%; post-emergence efficacy ABUTH ([21]; 80 g/ha): 100%; post-emergence efficacy ABUTH ([21]; 320 g/ha): 100%; post-emergence efficacy AMARE ([22]; 80 g/ha): 90%; post-emergence efficacy AMARE ([22]; 320 g/ha): 90%; post-emergence efficacy MATIN ([23]; 80 g/ha): 80%; post-emergence efficacy MATIN ([23]; 320 g/ha): 100%; logP (HCOOH) [24]: solid; logP (HCOOH): 1.82; 1H NMR (CDCl3, 400 MHZ, δ in ppm): 1.85 (m, 3H, 3H
Cc1cc2c(s1)CCCC2Nc1nc(N)c(Br)c(C(F)F)n1 (racemic) [compound 284] | 80 | 100 | 80 | 90 | 100 | 100 | 100 | 50 | 70 | 80 | 100 | 100 | 100 | 100 | 100 | 100 | 100 | 100 | 60 | 90 | ALOMY pre-emergence efficacy (herbicidal activity) ([4]; Dosage 80 g/ha): 70%; PHBPU pre-emergence efficacy (herbicidal activity) ([8]; Dosage 80 g/ha): 50%; AVEFA pre-emergence efficacy (herbicidal activity) ([9]; Dosage 80 g/ha): 50%; VIOTR pre-emergence efficacy (herbicidal activity) ([10]; Dosage 80 g/ha): 100%; VIOTR pre-emergence efficacy (herbicidal activity) ([10]; Dosage 320 g/ha): 100%; ABUTH pre-emergence efficacy (herbicidal activity) ([11]; Dosage 80 g/ha): 20%; CYPES pre-emergence efficacy (herbicidal activity) ([12]; Dosage 80 g/ha): 90%; post-emergence efficacy ECHCG [25]: 80%; post-emergence efficacy ALOMY [26]: 100%; post-emergence efficacy POLCO [17]: 100%; post-emergence efficacy SETVI ([18]; 80 g/ha): 90%; post-emergence efficacy PHBPU ([19]; 80 g/ha): 90%; post-emergence efficacy PHBPU ([19]; 320 g/ha): 100%; post-emergence efficacy ABUTH ([21]; 80 g/ha): 90%; post-emergence efficacy ABUTH ([21]; 320 g/ha): 90%; post-emergence efficacy AMARE ([22]; 80 g/ha): 80%; post-emergence efficacy AMARE ([22]; 320 g/ha): 80%; post-emergence efficacy MATIN ([23]; 320 g/ha): 80%
Cc1cc2c(s1)CCCC2Nc1ncc(C#N)c(N)n1 (racemic) [compound 52] | 80 | 90 | 80 | 100 | 100 | 80 | 100 | 100 | 90 | 100 | 100 | 100 | 100 | 100 | 100 | 100 | 100 | 80 | 90 | 90 | STEME pre-emergence efficacy (herbicidal activity) ([1]; Dosage 80 g/ha): 100%; STEME pre-emergence efficacy (herbicidal activity) ([1]; Dosage 320 g/ha): 100%; VERPE pre-emergence efficacy (herbicidal activity) ([3]; Dosage 80 g/ha): 100%; VERPE pre-emergence efficacy (herbicidal activity) ([3]; Dosage 320 g/ha): 100%; ALOMY pre-emergence efficacy (herbicidal activity) ([4]; Dosage 80 g/ha): 70%; AVEFA pre-emergence efficacy (herbicidal activity) ([9]; Dosage 80 g/ha): 90%; ABUTH pre-emergence efficacy (herbicidal activity) ([11]; Dosage 80 g/ha): 90%; CYPES pre-emergence efficacy (herbicidal activity) ([12]; Dosage 80 g/ha): 100%; post-emergence efficacy ECHCG [25]: 100%; post-emergence efficacy VERPE ([16]; 80 g/ha): 90%; post-emergence efficacy VERPE ([16]; 320 g/ha): 90%; post-emergence efficacy SETVI ([18]; 80 g/ha): 60%; post-emergence efficacy AMARE ([22]; 80 g/ha): 100%; post-emergence efficacy AMARE ([22]; 320 g/ha): 100%; post-emergence efficacy MATIN ([23]; 80 g/ha): 60%; post-emergence efficacy MATIN ([23]; 320 g/ha): 60%
